Literature values, collected in patent US20090023784A1, “USE OF DEFERIPRONE AND METHODS TO TREAT AND/OR PREVENT FRIEDREICH ATAXIA RESULTING FROM INTRACELLULAR MISHANDLING OF IRON” (priority 2006, published 2009).

Test system: intracellular iron pools of macrophages, hepatocytes, and cardiomyocyte cell lines
Details: living cells, fluorescence probes; cited from earlier work

For CC(=O)N(O)CCCCCNC(=O)CCC(=O)N(O)CCCCCNC(=O)CCC(=O)N(O)CCCCCN [desferrioxamine], the “access to intracellular iron pools / chelation” value is given as “slow”.
